For orientation: Ki means a measure of affinity in units of concentration, obtained from inhibition or displacement.

The target in one experiment is T1, human D4 receptor (Homo sapiens, UniProt P21917).
T1 sequence (P21917 1-419): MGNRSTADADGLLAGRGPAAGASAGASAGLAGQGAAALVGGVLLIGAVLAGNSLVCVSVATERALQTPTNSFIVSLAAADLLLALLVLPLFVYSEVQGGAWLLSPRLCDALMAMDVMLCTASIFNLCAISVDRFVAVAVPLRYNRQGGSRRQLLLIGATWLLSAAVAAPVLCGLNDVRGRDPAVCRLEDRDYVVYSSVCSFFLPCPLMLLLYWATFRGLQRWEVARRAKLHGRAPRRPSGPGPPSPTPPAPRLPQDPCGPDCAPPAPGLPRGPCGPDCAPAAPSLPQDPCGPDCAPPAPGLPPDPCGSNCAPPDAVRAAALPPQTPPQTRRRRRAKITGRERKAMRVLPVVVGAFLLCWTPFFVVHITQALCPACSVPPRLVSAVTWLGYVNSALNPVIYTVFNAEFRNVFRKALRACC
Kind of experiment: D4 receptor binding, 3H-YM 09151-2, CHO cell membranes. The note with it: recombinant human D4 in CHO cells, 0.1 nM 3H-YM 09151-2, 25° C. On the procedure:
(§1) The following assay is a standard assay for determining the binding affinity of compounds to dopamine D4 and D2 receptors.
(§2) Pellets of Chinese hamster ovary (CHO) cells containing recombinantly produced primate D2, human D4 and human α1 receptors are used for the assays. The sample is homogenized in 100 volumes (w/vol) of 0.05 M Tris HCl buffer containing 120 mM NaCl, 5 mM MgCl2 and 1 mM EDTA at 4° C. and pH 7.4. The sample is then centrifuged at 30,000×g, resuspended and rehomogenized. The sample is then recentrifuged at 30,000×g, the supernatant is removed and the final tissue sample is frozen until it is needed. The tissue is resuspended 1:20 (wt/vol) in 0.05 M Tris HCl buffer containing 120 mM NaCl.
(§3) Incubations for dopaminergic binding are carried out at 25° C. and contain 0.4 ml of tissue sample, 0.1 nM ^3H-YM 09151-2 (Nemonapride, cis-5-Chloro-2-methoxy-4-(methylamino)-N-(2-methyl-2-(phenylmethyl)-3-pyrrolidinyl)benzamide) and the compound of interest in a total incubation of 1.0 ml. Nonspecific binding is defined as that binding found in the presence of 1 μM spiperone; without further additions, nonspecific binding is less than 20% of total binding.

The target in another experiment is primate D2 receptor (UniProt P52702). Kind of experiment: D2 receptor binding, 3H-YM 09151-2, CHO cell membranes. The note with it: recombinant primate D2 in CHO cells, 0.1 nM 3H-YM 09151-2, 25° C. As to the method:
as §1, §2, §3

For another experiment, the system named is human α1 receptor. Kind of experiment: α1 receptor binding, 3H-prazosine, CHO cell membranes. The following applies: recombinant human α1 in CHO cells. On the procedure: as §2
Norepinephrine al binding is carried out using ^3H-prazosine as the ligand. Nonspecific binding is determined in the presence of 1 μM prazosine. Preferably, dopamine antagonists should not interact with the α1 adrenergic receptor, as interactions with this G-coupled protein receptor give rise to types of hypotension.

Molecules are shown by their SMILES. Some results are limits rather than exact numbers.

Sequence of primate D2 receptor (P52702 whole entry): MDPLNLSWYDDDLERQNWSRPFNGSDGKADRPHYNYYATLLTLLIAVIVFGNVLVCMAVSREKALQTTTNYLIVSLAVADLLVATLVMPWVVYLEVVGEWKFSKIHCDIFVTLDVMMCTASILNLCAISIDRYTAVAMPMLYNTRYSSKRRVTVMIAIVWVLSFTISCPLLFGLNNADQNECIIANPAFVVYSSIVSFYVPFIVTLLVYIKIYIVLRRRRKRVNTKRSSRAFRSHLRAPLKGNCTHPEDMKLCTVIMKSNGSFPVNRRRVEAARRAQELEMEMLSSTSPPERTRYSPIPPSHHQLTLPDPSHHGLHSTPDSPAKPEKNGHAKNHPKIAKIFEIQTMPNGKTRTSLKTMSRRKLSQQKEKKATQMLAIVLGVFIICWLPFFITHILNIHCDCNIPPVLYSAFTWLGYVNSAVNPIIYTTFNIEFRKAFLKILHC

For the compound `CC1Cc2cccc3c2N1C(=O)C(N1CCN(Cc2ccc(Cl)cc2)CC1)CC3` (mixture of isomers) [Compound 4], the inhibition constant (Ki) at human D4 receptor was 9 nM; at primate D2 receptor it was 50 nM; in the experiment with human α1 receptor, more than 1000 nM.
Regarding `Cc1ccc(CN2CCN(C3CCc4cccc5c4N(CC5)C3=O)CC2)cc1` (centres unmarked) [Compound 1, 5-[(4-methylbenzyl)piperazin-1-yl]-1,2,4,5,6,7-hexahydro-4-oxo-pyrrolo-[3,2,1-jk][1]benzazepine], at human D4 receptor, the Ki is 4 nM.
Same read-out and setting: for `CC1(C)Cc2cccc3c2N1C(=O)C(N1CCN(Cc2ccc(Cl)cc2)CC1)CC3` (centres unmarked) [Compound 2, 5-[(4-chlorobenzyl)piperazin-1-yl]-2,2-dimethyl-1,2,4,5,6,7-hexahydro-4-oxo-pyrrolo-[3,2,1-jk][1]benzazepine] the value was 19 nM.

(Values after patent US6403591B1, “1-azatricyclic-4-benzylpiperazines” (Neurogen Corporation, priority 1999, dated 2002).)
